The text below walks through data of patent US5233031A, “Phosphoramidate analogs of 2'-deoxyuridine” (University of Rochester, priority 1991, dated 1993).

Like-named read-outs stand apart in the source and are kept apart here.

Holding throughout (type): cell-based
Series [1] concerns L1210 leukemia cells. Briefly: Growth inhibition against L1210 leukemia cells in vitro. The settings on record: for IC50: Mus musculus. On the procedure: In addition to the B16 melanoma cell assay summarized in Table I, compounds 1a-e, 5 and 7 were evaluated for growth inhibitory activity against L1210 leukemia cells. Stock solutions of the compounds were prepared in 95% ethanol, and serial dilutions of drug were prepared in ethanol such that 50 μl of drug solution added to 10 ml of cell suspension gave the desired final concentration. L1210 cells in exponential growth were suspended in Fischer's medium supplemented with 10% horse serum, 1% glutamine, and 1% antibiotic-antimycotic solution to give 10-ml volumes of cell suspension at a final density of 3-6×10^4 /ml. Appropriate volumes of the solutions of each compound were transferred to the cell suspensions, and incubation was continued for 2, 8, 24, or 48 hr. The cells were spun down, resuspended in fresh drug-free medium, and returned to the incubator, then counted with a Coulter Counter 48 hr after treatment with the compound.
^a Data represents an average of at least two experiments; L1210 cell
were treated with compound for 2, 8, 24 and 48 hr. The drugcontaining
medium was removed, cells were washed, complete medium was added, and the
cells were incubated for 48 hr total. Cell counts were obtained 48 hr
after the start of treatment.

In series [2] the test system is B16 melanoma cells. Briefly: Cytotoxicity against B16 melanoma cells (clonogenic assay). The settings on record: read-out: LC-99 (concentration of compound required to kill 99% of B16 melanoma cells). On the procedure:
^a Concentration of compound required to kill 99% of B16 melanoma
cells in a clonogenic assay. Cells were treated with the compound for 2
B16 cells in exponential growth (2-3×10^6 cells in 10 ml of serum-free MEM medium) were treated with drug for 2 hr. The cells were separated, washed, and resuspended in MEM medium supplemented with 10% fetal bovine serum. The cells were plated in 60-mm culture dishes at a density of 50-50,000 cells/plate (depending upon the drug concentration used initially) and then incubated for 8 days in a CO2 incubator at 37° C. The colonies were fixed and stained with 0.5% crystal violet in ethanol and counted.

The subject of series [3] is L1210 leukemia cells. The experiment in a line: Reversal of L1210 growth inhibition by addition of thymidine. The settings on record: 5 μM thymidine. From the text: The relationship between potency and alkylating activity was confirmed by the synthesis and evaluation of the non-alkylating morpholino phosphoramidate 1e.
The mark [4] stands for this setting: Mus musculus, B16, 2 hr treatment.
[5] abbreviates: L1210, 48 h, read-out: IC50, treatment time 48 hr.
The mark [6] stands for this setting: L1210, read-out: IC50, treatment time 2 hr.
The mark [7] stands for this setting: L1210, read-out: IC50, treatment time 8 hr.
[8] abbreviates: L1210, read-out: IC50, treatment time 24 hr.

Turning to `O=c1[nH]cc(F)c(=O)[nH]1` [5-Fluorouracil, reference compound], the 50% inhibitory concentration (IC50) (as a rule, the concentration at which inhibition is half-maximal) in series [1] (L1210, 2 hr treatment, counted 48 hr after start of treatment, average of at least two experiments, read-out: IC50, treatment time 2 hr) worked out at 2200 nM; in series [1] (L1210, 8 hr treatment, counted 48 hr after start of treatment, average of at least two experiments, read-out: IC50, treatment time 8 hr) it was 630 nM; in series [1] (L1210, 24 hr treatment, counted 48 hr after start of treatment, average of at least two experiments, read-out: IC50, treatment time 24 hr), 220 nM; in series [1] (L1210, 48 hr treatment, average of at least two experiments, read-out: IC50, treatment time 48 hr), 125 nM.
Regarding `CC1CC(C)(C)NC(CCOP(=O)(OC[C@H]2O[C@@H](n3cc(F)c(=O)[nH]c3=O)C[C@@H]2O)N(C)CCBr)O1` (some centres unmarked) [Compound 1a, 5-FIuoro-2'-deoxy-5'-uridyl-[2-(4,4,6-trimethyltetrahydro-1,3-oxazin-2-yl)ethyl]-N-methyl-N-(2-bromoethyl)phosphoramidate], in series [2] (setting [4]), the IC99 is 100 µM. Besides, the “inhibition of cell proliferation” value in series [1] (1a: 2 hr contact time, iodo and tosyl analogs: compared with 1a) was “potent inhibitor of cell proliferation”. Besides, the concentration for half-maximal inhibition (IC50) in series [1] (setting [5]) is 2.5 nM; in series [1] (setting [6]) it was 120 nM; in series [1] (setting [7]) it was 50 nM; in series [1] (setting [8]), 18 nM. Also, in series [1] (treatment times of 2, 8, 24, and 48 hr), the “potency relative to 5-FU (more potent)” value was 1-2 orders of magnitude. In addition, the “inhibitory activity on addition of thymidine” value in series [3] is “completely blocked”.
`Cc1ccc(S(=O)(=O)OCCN(C)P(=O)(OCCC2NC(C)(C)CC(C)O2)OC[C@H]2O[C@@H](n3cc(F)c(=O)[nH]c3=O)C[C@@H]2O)cc1` (some centres unmarked) [Compound 1b]: in series [2] (setting [4]), the IC99 stood at 156 µM. Also, the IC50 in series [1] (setting [5]) was determined as 2.5 nM; in series [1] (setting [6]), 160 nM; in series [1] (setting [7]) it was 60 nM; in series [1] (setting [8]), 19 nM.
The matching figures for `CC1CC(C)(C)NC(CCOP(=O)(OC[C@H]2O[C@@H](n3cc(F)c(=O)[nH]c3=O)C[C@@H]2O)N(C)CCCl)O1` (some centres unmarked) [Compound 1c]: 308 µM, 3.5 nM, 300 nM, 160 nM and 25 nM.
The matching figures for `CC1CC(C)(C)NC(CCOP(=O)(OC[C@H]2O[C@@H](n3cc(F)c(=O)[nH]c3=O)C[C@@H]2O)N(C)CCI)O1` (some centres unmarked) [Compound 1d, 5-Fluoro-2'deoxy-5'-uridyl-[2-(4,4,6-trimethyltetrahydro-1,3-oxazin-2-yl)ethyl]-N-methyl-N-(2-iodoethyl)phosphoramidate]: 95 µM, 2 nM, 190 nM, 75 nM and 6 nM.
With `CC1CC(C)(C)NC(CCOP(=O)(OC[C@H]2O[C@@H](n3cc(F)c(=O)[nH]c3=O)C[C@@H]2O)N2CCOCC2)O1` (some centres unmarked) [Compound 1e, 5-Fluoro-2'-deoxy-5'-uridyl-[2-(4,4,6-trimethyltetrahydro-1,3-oxazin-2-yl)ethyl]-morpholinophosphoramidate], the IC99 in series [2] (setting [4]) amounted to 216 µM. Further, the IC50 in series [1] (setting [5]) is 150 nM; in series [1] (setting [6]) it was 15000 nM; in series [1] (setting [7]) it was 5000 nM; in series [1] (setting [8]) it was 900 nM. Moreover, the “potency compared with 5-FU” value in series [1] (long treatment times) is “comparable in potency to 5-FU”.
In the case of `CC1CC(C)(C)NC(CCOP(=O)(OC[C@H]2O[C@@H](n3ccc(=O)[nH]c3=O)C[C@@H]2O)N2CCOCC2)O1` (some centres unmarked) [Compound 2, 2'-Deoxy-5'-uridyl-[2-(4,4,6-trimethyltetrahydro-1,3-oxazin-2-yl)ethyl]morpholinophosphoramidate], in series [2] (setting [4]), the IC99 came out at 190 µM.
The same measure, in the same setting: under `Cc1cn([C@H]2C[C@H](O)[C@@H](COP(=O)(OCCC3NC(C)(C)CC(C)O3)N3CCOCC3)O2)c(=O)[nH]c1=O` (some centres unmarked) [Compound 3, Thymidyl-[2-(4,4,6-trimethyltetrahydro-1,3-oxazin-2-yl)ethyl]morpholinophosphoramidate] stands 152 µM; under `CC1CC(C)(C)NC(CCOP(=O)(OC[C@H]2O[C@@H](n3cc(F)c(=O)[nH]c3=O)C[C@@H]2O)N2CCCCC2)O1` (some centres unmarked) [Compound 4, 5-Fluoro-2'-deoxy-5'-uridyl-[2-(4,4,6-trimethyltetrahydro-1,3-oxazin-2-yl)ethyl]piperidinophosphoramidate], 98 µM.
Take `CC1CC(C)(C)NC(CCOP(=O)(OC[C@H]2O[C@@H](n3ccc(=O)[nH]c3=O)C[C@@H]2O)N(C)CCBr)O1` (some centres unmarked) [Compound 5, 2'-Deoxy-5'-uridyl-[2-(4,4,-trimethyltetrahydro-1,3-oxazin-2-yl)ethyl]-N-methyl-N-(2-bromoethyl)phosphoramidate]: the IC99 in series [2] (setting [4]) worked out at 318 µM. In addition, the IC50 was determined as 425 nM in series [1] (setting [5]), 20000 nM in series [1] (setting [6]), 8200 nM in series [1] (setting [7]) and 1300 nM in series [1] (setting [8]).
The matching figures for `Cc1cn([C@H]2C[C@H](O)[C@@H](COP(=O)(OCCC3NC(C)(C)CC(C)O3)N(C)CCBr)O2)c(=O)[nH]c1=O` (some centres unmarked) [Compound 7, Thymidyl-[2-(4,4,-trimethyltetrahydro-1,3-oxazin-2-yl)ethyl]-N-methyl-N-(2-bromoethyl)phosphoramidate]: 165 µM, 590 nM, 13000 nM, 10500 nM and 7000 nM.
In the case of `Cc1cn([C@H]2C[C@H](O)[C@@H](COP(=O)(OCCC3NC(C)(C)CC(C)O3)N(CCBr)CCBr)O2)c(=O)[nH]c1=O` (some centres unmarked) [Compound 8, Thymidyl-[2-(4,4,6-trimethyltetrahydro-1,3-oxazin-2-yl)ethyl]bis-(2-bromoethyl)phosphoramidate], in series [2] (2 hr treatment), the IC99 was 120 µM.
